Reference: ChEMBL document CHEMBL4130412, “Characterization of the Degradation Profile of Umbelliprenin, a Bioactive Prenylated Coumarin of a Ferulago Species” (J Nat Prod, 2017)
One block for each compound: values may come before it.

Columns and labels:
Format in all cases: physicochemical
[1] = Drug level treated with umbelliprenin under sunlight in EtOH solution after 6 days by 1H-NMR analysis; settings: 144 h
[2] = Photochemical stability of the compound assessed as compound degradation under sunlight in EtOH solution measured after 24 hrs by HPLC analysis; settings: read-out: Drug degradation
[3] = Photochemical stability of the compound assessed as compound degradation under 254 nm UV-light exposure in EtOH solution measured after 24 hrs by HPLC analysis; settings: read-out: Drug degradation
[4] = Photochemical stability of the compound assessed as compound degradation under sunlight in EtOH solution measured after 4 days by HPLC analysis; settings: read-out: Drug degradation
[5] = Thermal stability of the compound assessed as compound degradation at 37 degC in EtOH solution after 48 hrs by HPLC analysis; settings: read-out: Drug degradation
[6] = Thermal stability of the compound assessed as compound degradation at 40 degC in EtOH solution after 48 hrs by HPLC analysis; settings: read-out: Drug degradation
[7] = Thermal stability of the compound at 37 degC in EtOH solution after 3 to 4 days by HPLC analysis
[8] = Thermal stability of the compound at 40 degC in EtOH solution after 3 to 4 days by HPLC analysis
[9] = Thermal stability of the compound assessed as compound degradation at 80 degC in EtOH solution measured up to 96 hrs by HPLC analysis; settings: read-out: Drug degradation
[10] = Stability of the compound assessed as compound degradation in 3% H2O2 solution at room temperature in EtOH solution after 24 hrs by HPLC analysis; settings: 3% H2O2 solution in EtOH solution; read-out: Drug degradation
[11] = Stability of the compound assessed as compound degradation in 3% H2O2 solution at 40 degC in EtOH solution after 24 hrs by HPLC analysis; settings: 3% H2O2 solution in EtOH solution; read-out: Drug degradation
[12] = Stability of the compound assessed as compound degradation in 3% H2O2 solution at room temperature in EtOH solution after 96 hrs by HPLC analysis; settings: 3% H2O2 solution in EtOH solution; read-out: Drug degradation
[13] = Stability of the compound assessed as compound degradation in 3% H2O2 solution at 40 degC in EtOH solution after 96 hrs by HPLC analysis; settings: 3% H2O2 solution in EtOH solution; read-out: Drug degradation
[14] = Stability of the compound assessed as compound degradation in 0.1 M NaOH solution at room temperature in EtOH solution after 96 hrs by HPLC analysis; settings: 0.1 M NaOH solution in EtOH solution; read-out: Drug degradation
[15] = Stability of the compound assessed as compound degradation in 0.1 M NaOH solution at 60 degC in EtOH solution after 96 hrs by HPLC analysis; settings: 0.1 M NaOH solution in EtOH solution; read-out: Drug degradation
[16] = Stability of the compound assessed as compound degradation in 0.1 M HCl solution at room temperature in EtOH solution after 96 hrs by HPLC analysis; settings: 0.1 M HCl solution in EtOH solution; read-out: Drug degradation
[17] = Stability of the compound assessed as compound degradation in 0.1 M HCl solution at 60 degC in EtOH solution after 24 hrs by HPLC analysis; settings: 0.1 M HCl solution in EtOH solution; read-out: Drug degradation
[18] = Photochemical stability of the compound assessed as compound degradation under sunlight using solid samples measured up to 96 hrs by HPLC analysis; settings: read-out: Drug degradation
[19] = Photochemical stability of the compound assessed as compound degradation under 254 nm UV-light exposure using solid samples measured up to 96 hrs by HPLC analysis; settings: read-out: Drug degradation
[20] = Thermal stability of the compound assessed as compound degradation at 37 to 80 degC using solid samples after 96 hrs by HPLC analysis; settings: read-out: Drug degradation
[21] = Stability of the compound assessed as compound degradation in 0.1 M NaOH solution at 60 to 80 degC using solid sample up to 96 hrs by HPLC analysis
[22] = Stability of the compound assessed as compound degradation in 0.1 M HCl solution at 60 to 80 degC using solid sample up to 96 hrs by HPLC analysis; settings: buffer
[23] = Photostability of the compound assessed as parent compound remaining under sunlight exposed for 3 days in EtOH solution measured in presence of UV-A filter avobenzone by TLC method; settings: read-out: Stability
[24] = Photostability of the compound assessed as parent compound remaining under sunlight exposed for 3 days in EtOH solution measured in presence of UV-A filter DHHB by TLC method; settings: read-out: Stability
[25] = Photostability of the compound assessed as parent compound remaining under sunlight exposed for 3 days in EtOH solution measured in presence of UV-B filter octinoxate by TLC method; settings: read-out: Stability
[26] = Photostability of the compound assessed as parent compound remaining under sunlight exposed for 3 days in EtOH solution measured in presence of antioxidant DL-alpha-tocopherol acetate by TLC method; settings: read-out: Stability
[27] = Photostability of the compound assessed as parent compound remaining under sunlight exposed for 6 days in EtOH solution measured in presence of UV-A filter avobenzone by TLC method; settings: read-out: Stability
[28] = Photostability of the compound assessed as parent compound remaining under sunlight exposed for 6 days in EtOH solution measured in presence of UV-A filter DHHB by TLC method; settings: read-out: Stability
[29] = Photostability of the compound assessed as parent compound remaining under sunlight exposed for 6 days in EtOH solution measured in presence of UV-B filter octinoxate by TLC method; settings: read-out: Stability
[30] = Photostability of the compound assessed as parent compound remaining under sunlight exposed for 6 days in EtOH solution measured in presence of antioxidant DL-alpha-tocopherol acetate by TLC method; settings: read-out: Stability
[31] = Photostability of the compound assessed as parent compound remaining under sunlight exposed for 3 days in EtOH solution measured by TLC method; settings: read-out: Stability
[32] = Photostability of the compound assessed as parent compound remaining under sunlight exposed for 6 days in EtOH solution measured by TLC method; settings: read-out: Stability

- Drug metabolism [1]: Metabolite_Detected
Compound: C/C1=C\COc2ccc3c(c2)OC(=O)C2C3C(CC/C(C)=C/CC1)C2(C)C (stereo not drawn)

- Drug metabolism [1]: Metabolite_Detected
Compound: CC(C)=CCC/C(C)=C/CC/C(C)=C/COc1ccc2c(c1)OC(=O)[C@@H]1[C@@H]3C(=O)Oc4cc(OC/C=C(\C)CC/C=C(\C)CCC=C(C)C)ccc4[C@@H]3[C@H]21

- degraded at 24 h [2]: 70.4%
- degraded at 24 h [3]: 25.8%
- degraded at 96 h [4]: 91.6%
- degraded at 48 h [5]: 1.8%
- degraded at 48 h [6]: 12.7%
- Stability [7]: Unstable
- Stability [8]: Unstable
- degraded at 96 h [9]: 34%
- degraded at 24 h [10]: 19.1%
- degraded at 24 h [11]: 39.4%
- degraded at 96 h [12]: 41.6%
- degraded at 96 h [13]: 50.1%
- degraded at 96 h [14]: 85%
- degraded at 96 h [15]: 85%
- degraded at 96 h [16]: 22.2%
- degraded at 24 h [17]: > 95%
- degraded at 96 h [18]: 64.7%
- degraded at 96 h [19]: 59.4%
- degraded at 96 h [20]: 54.6 to 65.1%
- Stability [21]: Stable
- Stability [22]: Stable
- remaining at 72 h [23]: 97%
- remaining at 72 h [24]: 100%
- remaining at 72 h [25]: 56%
- remaining at 72 h [26]: 32%
- remaining at 144 h [27]: 88%
- remaining at 144 h [28]: 98%
- remaining at 144 h [29]: 13%
- remaining at 144 h [30]: 10%
- remaining at 72 h [31]: 35%
- remaining at 144 h [32]: 9%
Compound: CC(C)=CCC/C(C)=C/CC/C(C)=C/COc1ccc2ccc(=O)oc2c1 [UMBELLIPRENIN]
